A word on the IC50: it is the concentration needed to halve the response being measured.

Series [1] can be described thus: Stability of ^18F-TFB (radio-TLC and anion chromatography HPLC). Type of series: physicochemical. Particulars: NaBF4 stock solution stored for 7 month at room temperature. The protocol: The product ^18F-TFB was analyzed for radiochemical purity by both radio-TLC (MeOH, Rf=0.8-0.85) and anion chromatography HPLC with radioactivity detector (Dionex IC-2100, AS19 analytical column: 4.7×150 mm; eluent: 35 mM KOH; sample volume: 25.L; flow rate: 1 mL/min; retention times: 7.6 min for ^18F-TFB, […]). Chemical purity and specific activity were analyzed by anion chromatography HPLC (retention times: 3.5 min for fluoride, 4.3 min for chloride, and 7.6 min for BF4—). Residual organic solvents were analyzed by GC (helium carrier gas flow at 10 cc/min through a MXTWAX column (Restek, Bellefonte, Pa., 0.53 mm ID, 30 m length)).
After the synthesis, a sample was diluted with water for the analysis. With the eluent of methanol on silica gel plate, purities of >98% were obtained on the radio-TLC scanner.
^18F-TFB was prepared and formulated in sterile 0.9% NaCl under cGMP conditions as previously described (12). Decay-corrected radiochemical yields of 32±2% and radiochemical purities (RCPs) >98% were obtained. Specific radioactivity of 2.2±0.9 GBq/μmol was achieved from starting ^18F-fluoride radioactivity of 20-31 GBq. In vitro RCP remained >96% up to 8 h at room temperature.

Another series has as its system NIS. Particulars: reference (21); read-out: IC50 for inhibition of iodine uptake by NIS in thyroid; cited from earlier work.

For the molecule `F[B-](F)(F)F.[Na+]` [NaBF4, reference compound], the “TFB decayed (HPLC)” value in series [1] was determined as 50%.
As to `F[B-](F)(F)F` [TFB, tetrafluoroborate], the 50% inhibitory concentration (IC50) in the series on NIS was 100 to 1000 nM.

The values are drawn from patent publication US11532406B2, “High specific activity preparation of F-18 tetrafluoroborate” (Mayo Foundation for Medical Education and Research, priority 2016, dated 2022).
